Results from article PMC5770468, “Cardiac glycoside/aglycones inhibit HIV-1 gene expression by a mechanism requiring MEK1/2-ERK1/2 signaling” (Scientific Reports, 2018).

Assays:
SRp20/SRSF3 = assay: Immunoblot of SRp20 in HeLa rtTA-HIV-ΔMls cells; format: cell-based, human; settings: 3 d with ~IC50s of CSs
Text: Figure 4 CSs suppress HIV-1 gene expression by altering viral RNA processing. […] (a,b) CSs induce oversplicing of HIV-1 RNAs (n ≥ 3, mean, s.e.m.). (a) Diagram of the primer positions (arrow heads) used for qRT-PCR. (b) Graph of the relative amount of US (black), SS (white), and MS (gray) HIV-1 RNAs in cells treated with various CSs. (c) Nuclear export of HIV-1 US RNAs in cells is altered by CSs (representative n ≥ 4). HIV-1 US RNAs were localized by FISH after treating HeLa rtTA-HIV(Gag-GFP) cells as described above but with ~IC90s of CSs. Nuclei were stained by DAPI and images captured at 630 × magnification. […] SRp20, Tra2β, and tubulin were analyzed by immunoblot of HeLa rtTA-HIV-ΔMls cells treated as described above except cells of this representative blot were treated 3 d with ~IC50s of CSs. […]
To monitor HIV-1 gene expression or replication, Gag release into cell culture supernatants were assayed by ELISA using a p24^CA antigen capture assay kit (AIDS & Cancer Virus Program, NCI-Frederick, Frederick, MD USA). […] For analysis of HIV-1 and SR protein expression (and phosphorylation states with calf intestinal alkaline phosphatase treatments), cells were lysed and analyzed by western blot as previously outlined. […] Activation of MAPKs was determined by western blot quantitation and calculation of phospho/total protein levels. […]

HeLa rtTA-HIV-ΔMls cells = assay: In vitro therapeutic index (CC20/IC50) in HeLa rtTA-HIV-ΔMls cells; format: cell-based, human
Text: Without median toxic dose (TD50) and half-maximal effective concentration (EC50) data available to calculate TIs (in vivo) from HIV patients treated with CSs, we determined the following TIs for each cell type treated with a CS (summarized in Supplementary Table S1): in vitro TIs from HeLa rtTA-HIV-ΔMls cells using CC20/IC50 (instead of CC50/IC50), in vitro TIs from 24ST1NLESG cells using CC50/IC50, and ex vivo TIs from HIV-infected PBMCs using CC50/IC50 (at day 14 of culture approximated from available cell viability trends for CC50s of Supplementary Fig. S13 and inferred near maximal IC50s).
Supplementary Table S1. Comparison of the in vitro (IVTI) and ex vivo therapeutic indices (EVTIs) of CSs and their impact on the expression of essential HIV-1 proteins.
Notes: data for CC20, CC50, and IC50s for each drug/compound were estimated from dose response curves in Figures 1-2, Supplementary Table S1, Supplementary Figures S2, S5, and S13, and Wong et al.
">" means the estimate has not been accurately determined but is greater than the highest concentration […]
"( )" indicates preliminary data that was not shown. aCC20 instead of CC50 was estimated from dose response curves and used for calculation of IVTIs. bCells were treated at ~IC90of a CS.
(1 picture or pasted object on this page, not shown here)

C[C@]12CC[C@H](O)C[C@H]1CC[C@@H]1[C@@H]2CC[C@]2(C)[C@@H](C3=CC(=O)OC3)CC[C@]12O [Digitoxigenin]
mobility of SRp20 (SRp20/SRSF3): increased the mobility

C[C@@H]1O[C@@H](O[C@H]2C[C@@H](O)[C@]3(CO)[C@H]4[C@H](O)C[C@]5(C)[C@@H](C6=CC(=O)OC6)CC[C@]5(O)[C@@H]4CC[C@]3(O)C2)[C@H](O)[C@H](O)[C@H]1O [Ouabain]
better in vitro TI than digoxin (HeLa rtTA-HIV-ΔMls cells): 1.2 fold
